Where two headings read alike, the source gives them in different places. Starred links: 1 amine or outer side, 2 acyl side, 3 side chain; linkers in the order of their positions; H or OH if unused. Positions of bridges follow the written chain, without caps; N, C: chain ends. Non-standard residues stand in square brackets, D forms with d. Residues, ends and D or L forms follow the SMILES beside them. ξ: configuration not given here. *: point of attachment. X4 = COc1cc2cc(c1Cl)N(C)C(=O)C[C@H](OC(=O)[C@H](C)N(C)C(=O)CCN(C)*)[C@]1(C)O[C@H]1[C@H](C)[C@@H]1C[C@@](O)(NC(=O)O1)[C@H](OC)/C=C/C=C(\C)C2; Dolaproine = CO[C@@H]([C@@H]1CCCN1)[C@@H](C)C(=O)O; Dil = CC[C@H](C)[C@H](NC)[C@@H](CC(=O)O)OC; TBMB = c1c(C[*:1])cc(C[*:3])cc1C[*:2]; PABC = O=C(OCc1ccc(N[*:1])cc1)[*:2]; Glutaryl = O=C(CCCC(=O)[*:2])[*:1]; X1 = C[C@@H](N*)[C@@H](O)c1ccccc1; ξ1Nal = NC(Cc1cccc2ccccc12)C(=O)O; Cit = NC(=O)NCCC[C@H](N)C(=O)O; NMeV = CN[C@H](C(=O)O)C(C)C; ξY = NC(Cc1ccc(O)cc1)C(=O)O; ξTle = CC(C)(C)C(N)C(=O)O; ξF = NC(Cc1ccccc1)C(=O)O; ξE = NC(CCC(=O)O)C(=O)O; ξD = NC(CC(=O)O)C(=O)O; ξN = NC(=O)CC(N)C(=O)O; ξC = NC(CS)C(=O)O; βAla = NCCC(=O)O; ξA = CC(N)C(=O)O; Sar = CNCC(=O)O
Experiments:
[1] = test system: EBC-1; experiment: cells; settings: for IC50: read-out: Re IC50
Source text: (§1) Details of the initial cell plating procedure are described in Table 3.
(§2) Data Details for Tables 5 and 6. Inhibition %=(Max−Sample value)/(Max−Min)*100.
(§3) The IC50 curves were generated by 4 Parameter Logistic Model—Sigmoidal Dose-Response Model as follows: Y=Bottom+(Top−Bottom)/(1+10^((log EC50-X)*HillSlope)).

[2] = test system: HCC1806; experiment: cells; settings: for IC50: read-out: Re IC50
Source text: as §1, §2, §3

[3] = test system: HCT15; experiment: cells; settings: for IC50: read-out: Re IC50
Source text: as §1, §2, §3

[4] = test system: HT1080; experiment: cells; settings: for IC50: read-out: Re IC50
Source text: as §1, §2, §3

[5] = test system: HT29; experiment: cells; settings: for IC50: read-out: Re IC50
Source text: as §1, §2, §3

[6] = test system: MDA-MB-231; experiment: cells; settings: for IC50: read-out: Re IC50
Source text: as §1, §2, §3

[7] = test system: MOLP-8; experiment: cells; settings: for IC50: read-out: Re IC50
Source text: as §1, §2, §3

[8] = test system: NCI-H1975; experiment: cells; settings: for IC50: read-out: Re IC50
Source text: as §1, §2, §3

[9] = test system: NCI-H292; experiment: cells; settings: for IC50: read-out: Re IC50
Source text: as §1, §2, §3

[10] = test system: PC-3; experiment: cells; settings: for IC50: read-out: Re IC50
Source text: as §1, §2, §3

[11] = test system: SNU-16; experiment: cells; settings: for IC50: read-out: Re IC50
Source text: as §1, §2, §3

[12] = test system: HT1080 cells; experiment: Cytotoxicity in HT1080 cells in presence and absence of 1 mM bacitracin (ATPlite, 24 hour exposure)
Procedure: HT1080 cells (ATCC, via LGC, BIC918) Maintained in EMEM media (Sigma M2279)+10% FBS (Sigma Code F7524)+4 mM L-Glu (Invitrogen Cat 25030-024)
I-1a and Toxins with Bacitracin—24 or 72 Hour Exposure in 96 Well Plates
DB seeded cells in normal media, 75 μL in 96 well clear plates, ˜24 hours previous.
HT1080—7.5 k cells/well: 50% confluent upon dosing.
Dilute in media 1:42.85=5 μL DMSO dilute+209 μL media=>use 15 μL per well
This gives a 5 μM top concentration for BDCs in assay
Add 10 µL of media±bacitracin (2 plates of each)−leave for 1 hr
(§4) Bacitracin=1 mM final concentration. This requires a 10 mM concentration with no DMSO.
Add 15 μL treatment per well as in Table 19, below.
Seal plates with gas permeable membrane and incubate at 37° C.
Washout HT1080 plates with 2×150 μL PBS at 24 h and add 100 μL fresh media
At t=72 h, equilibrate ATPlite reagent to room temperature. Add 10 ml buffer to each vial of lyophilized substrate. Add 100 μL reagent per well. Seal with PCR seal and cover to protect from light. Shake for 20 mins before reading luminescence

[13] = test system: L540 cells; experiment: Cytotoxicity in L540 cells in presence and absence of 1 mM bacitracin (ATPlite, 72 hour exposure); type: cell-based
Procedure: L540 cells (DSMZ # ACC72, BIC5121), maintained in RPMI-1640 medium (Sigma # R8758)+20% heat-inactivated serum
L540—20 k cells/well: 40% confluent upon dosing.
as §4
Add 100 μL reagent per well. […] Shake for 20 mins before reading luminescence

[14] = Mortality, morbidity and body weight in HT1080 xenograft study (Example 13); type: in vivo, mouse
Procedure: All the procedures related to animal handling, care and the treatment in the study were performed following the guidance of the Association for Assessment and Accreditation of Laboratory Animal Care (AAALAC). At the time of routine monitoring, the animals were daily checked for any effects of tumor growth and treatments on normal behavior such as mobility, food and water consumption (by looking only), body weight gain/loss (body weights were measured every day), eye/hair matting and any other abnormal effect as stated in the protocol. Death and observed clinical signs were recorded on the basis of the numbers of animals within each subset.
Body weight was monitored regularly as an indirect measure of toxicity.

[15] = test system: 11 tumor cell lines; experiment: 11 cancer cell line panel cytotoxicity, statements on the whole panel; settings: 72 h, read-out: IC50 on all 11 tumor cell lines
Source text: as §1, §2, §3

[16] = test system: HT1080 cells; experiment: HT1080 cytotoxicity (ATPLite) in presence or absence of excess binding or non-binding peptide; type: cell-based; settings: for IC50: mean ± standard deviation
Procedure: The target dependence of cytotoxicity of I-1a in cell lines expressing or lacking MT1-MMP was assessed by measuring ATP levels in an endpoint assay after 24 hours exposure to toxin, in the presence or absence of an excess of binding peptide or non-binding control peptide.
HT1080 cells were seeded in 96 well plates (75 μL/well) and incubated overnight at 37° C.+5% CO2. The next day, peptides were prepared in buffer from a DMSO stock. 10 μL of buffer or peptide was added to the cells and incubated for 1 hour. Toxins were diluted in cell culture media and 15 μL/well was added to the cells (<0.5% final DMSO). Cells were approximately 30-50% confluent upon dosing. Plates were sealed with gas permeable seals and incubated for 24 hours at 37° C.+5% CO2. After 24 hours, media was removed, cells were washed with PBS and 100 μL fresh media was added per well. Cells were incubated for a further 48 hours at 37° C.+5% CO2.
ATPLite reagent (Perkin Elmer) was equilibrated to room temperate and reconstituted in buffer as per the manufacturer's instructions. 100 μL reagent was added per well. Plates were sealed and shaken gently for 20 minutes to ensure complete cell lysis before luminescence was read using a BMG Pherastar. […] Data was analyzed using GraphPad Prism. Non-linear regression fit was used to calculate an IC50 for each toxic agent: Y=Bottom+(Top−Bottom)/(1+10^((Log IC50-X)*HillSlope)).

[17] = read-out: IC50 with 1 mM bacitracin, 24 hour exposure, + 1 mM bacitracin (PDI inhibitor)
[18] = read-out: Standard IC50, 24 hour exposure (high MT1 expression), no block
[19] = 72 hour exposure (low/no MT1 expression), no block, read-out: Standard IC50
[20] = read-out: IC50 with 1 mM bacitracin, 72 hour exposure, + 1 mM bacitracin

Structure (SMILES) | Top inhibition% ([1]; EBC-1, 72 hours) [%] | IC50 ([1]; EBC-1, 72 hours) [nM] | Top inhibition% ([2]; HCC1806, 72 hours) [%] | IC50 ([2]; HCC1806, 72 hours) [nM] | Top inhibition% ([3]; HCT15, 72 hours) [%] | IC50 ([3]; HCT15, 72 hours) [nM] | Top inhibition% ([4]; HT1080, 72 hours) [%] | IC50 ([4]; HT1080, 72 hours) [nM] | Top inhibition% ([5]; HT29, 72 hours) [%] | IC50 ([5]; HT29, 72 hours) [nM] | Top inhibition% ([6]; MDA-MB-231, 72 hours) [%] | IC50 ([6]; MDA-MB-231, 72 hours) [nM] | Top inhibition% ([7]; MOLP-8, 72 hours) [%] | IC50 ([7]; MOLP-8, 72 hours) [nM] | Top inhibition% ([8]; NCI-H1975, 72 hours) [%] | IC50 ([8]; NCI-H1975, 72 hours) [nM] | Top inhibition% ([9]; NCI-H292, 72 hours) [%] | IC50 ([9]; NCI-H292, 72 hours) [nM] | Top inhibition% ([10]; PC-3, 72 hours) [%] | Top inhibition% ([11]; SNU-16, 72 hours) [%] | further results
COc1cc2cc(c1Cl)N(C)C(=O)C[C@H](OC(=O)[C@H](C)N(C)C(=O)CCSSC)[C@]1(C)O[C@H]1[C@H](C)[C@@H]1C[C@@](O)(NC(=O)O1)[C@H](OC)/C=C/C=C(\C)C2 [DM1-Sme] | 65 | 0.32 | 88 | 0.62 | 94 | 0.94 | 99 | 0.22 | 82 | 0.68 | 49 | 0.79 | 92 | 0.21 | 64 | 1.52 | 77 | 0.27 | 54 | 98 | IC50 ([10]; PC-3, 72 hours): 0.18 nM; IC50 ([11]; SNU-16, 72 hours): 0.77 nM; Fold shift with bacitracin ([12]; 24 hour exposure, 1 mM bacitracin vs none): 5.9; IC50 [12, 17]: 0.41 nM; IC50 [12, 18]: 0.07 nM; IC50 [13, 19]: 9.6 nM; IC50 [13, 20]: 12 nM
COc1cc2cc(c1Cl)N(C)C(=O)C[C@H](OC(=O)[C@H](C)N(C)C(=O)CCN(C)C(=O)OCc1ccc(NC(=O)[C@H](CCCNC(N)=O)NC(=O)[C@@H](NC(=O)CCCC(=O)NCCC(=O)N(C)CC(=O)N(C)CC(=O)N(C)CC(=O)N(C)CC(=O)N(C)CC(=O)N(C)CC(=O)N(C)CC(=O)N(C)CC(=O)N(C)CC(=O)N(C)CC(=O)NC(C)C(=O)NC3CSCc4cc5cc(c4)CSCC(NC(=O)C(C)NC(=O)C(Cc4cccc6ccccc46)NC(=O)C(CCC(=O)O)NC(=O)C(CC(N)=O)NC(=O)C(C)NC3=O)C(=O)NC(C)C(=O)NC(CC(=O)O)C(=O)NC(Cc3ccccc3)C(=O)NC(Cc3ccc(O)cc3)C(=O)NC(CC(=O)O)C(=O)NC(C(C)(C)C)C(=O)NC(C(N)=O)CSC5)C(C)C)cc1)[C@]1(C)O[C@H]1[C@H](C)[C@@H]1C[C@@](O)(NC(=O)O1)[C@H](OC)/C=C/C=C(\C)C2 (stereo partly drawn) [Compound I-8] ({X4-PABC-Cit-Val-Glutaryl-βAla}-[Sar][Sar][Sar][Sar][Sar][Sar][Sar][Sar][Sar][Sar][ξA][ξC][ξA][ξN][ξE][ξ1Nal][ξA][ξC][ξA][ξD][ξF][ξY][ξD][ξTle][ξC]-NH2; linker 12-18-25 via TBMB) | – | – | – | – | – | – | – | – | – | – | – | – | – | – | – | – | – | – | – | – | mouse with severe tumor ulceration ([14]; 1 mg/kg biw): 1/3; mouse died at day 14 ([14]; 3 mg/kg biw): 1/3
CCc1c2c(nc3ccc(O)cc13)-c1cc3c(c(=O)n1C2)COC(=O)[C@]3(O)CC [SN38] | 87 | – | 96 | – | 80 | – | 96 | – | 98 | – | 78 | – | 88 | – | 116 | – | 92 | – | 78 | 76 | IC50 ([1]; Homo sapiens, EBC-1, 72 h): 2.34 nM; IC50 ([2]; Homo sapiens, HCC1806, 72 h): 4.69 nM; IC50 ([3]; Homo sapiens, HCT-15, 72 h): 11.5 nM; IC50 ([4]; Homo sapiens, HT-1080, 72 h): 1.35 nM; IC50 ([5]; Homo sapiens, HT-29, 72 h): 23.7 nM; IC50 ([6]; Homo sapiens, MDA-MB-231, 72 h): 25.1 nM; IC50 ([7]; Homo sapiens, MOLP-8, 72 h): 3.59 nM; IC50 ([8]; Homo sapiens, NCI-H1975, 72 h): 272 nM; IC50 ([9]; Homo sapiens, NCI-H292, 72 h): 3.48 nM; IC50 ([10]; Homo sapiens, PC-3, 72 h): 48.7 nM; IC50 ([11]; Homo sapiens, SNU-16, 72 h): 2.14 nM; IC50 [15]: < 300 nM
CC[C@H](C)[C@@H]([C@@H](CC(=O)N1CCC[C@H]1[C@H](OC)[C@@H](C)C(=O)N[C@H](C)[C@@H](O)c1ccccc1)OC)N(C)C(=O)[C@@H](NC(=O)[C@@H](NC)C(C)C)C(C)C [MMAE, monomethyl auristatin E] (H-[NMeV]V[Dil][Dolaproine]-X1) | 67 | 0.35 | 91 | 0.26 | 100 | 21.4 | 97 | 0.68 | 81 | 0.42 | 61 | 0.62 | 93 | 0.65 | 65 | 0.38 | 86 | 0.34 | 58 | 99 | IC50 ([10]; PC-3, 72 hours): 0.85 nM; IC50 ([11]; SNU-16, 72 hours): 0.18 nM; IC50 [12, 17]: 0.15 nM; IC50 [12, 18]: 0.083 nM; IC50 [13, 19]: 0.49 nM; IC50 [13, 20]: 0.28 nM; IC50 ([16]; 24 hours exposure, No block, 3 repeats): 0.06 nM; Maximum kill ([16]; +250 μM binding peptide): 95%; IC50 ([16]; +250 μM binding peptide): 0.05 nM; Maximum kill ([16]; +250 μM non-binding peptide): 95%; IC50 ([16]; +250 μM non-binding peptide): 0.05 nM; Maximum kill ([16]; No block, compared to a lysis control): 95%
